Data as given in PMC3688238, “The effect of different dosing regimens of motesanib on the gallbladder: a randomized phase 1b study in patients with advanced solid tumors” (BMC Cancer, 2013).
Read-outs that look alike come from different tables or passages of the source.

Assays:
Type in all cases: in vivo, human
[1] = system: gallbladder; assay: Gallbladder size (volume) by ultrasound, independent central review; conditions: for Mean change in gallbladder volume after discontinuation of motesanib (95% CI): last on-treatment to last available off-treatment measurement; for Gallbladder volume, mean change from baseline (95% CI): ultrasound
Experimental: (§1) Gallbladder volume was assessed by ultrasound after a ≥8 hours fast at screening (within 21 days prior to randomization) and before the motesanib morning dose on days 8 and 15 of cycle 1, on day 1 of cycles 2 and 3, every 6 weeks thereafter, and at the safety follow-up (30 to 33 days after the last dose). Ultrasound was performed weekly when motesanib was withheld and weekly for 4 weeks following treatment discontinuation. Gallbladder ultrasound measurements were assessed by independent central radiologic review (MedQIA, Los Angeles, CA, USA). Gallbladder ejection fraction was assessed by investigators or other study site personnel using CCK-HIDA at screening (within 21 days of randomization), on day 1 of cycle 2, day 1 of cycle 6 (±3 days), and at the safety follow-up. Study-specific training and standard operating procedures were supplied to all radiology technicians.
(§2) The ultrasound and CCK-HIDA gallbladder analysis sets, which included all randomized patients who received ≥1 dose of motesanib and had baseline and ≥1 evaluable follow-up ultrasound or CCK-HIDA, respectively, were used for the principal analysis of endpoints related to gallbladder size and characteristics. For each dosing scheme, estimates for the mean and maximum change from baseline in gallbladder size (volume as measured by ultrasound) and function (ejection fraction as measured by CCK-HIDA scan) were calculated. Mean change from baseline was calculated by taking the difference between the baseline gallbladder measurement and the average gallbladder measurement observed during study treatment. The mean (95% CI) difference was then calculated across all patients for each treatment arm, and for the whole study population. Maximum change from baseline in gallbladder size or volume was calculated by taking the difference between the baseline gallbladder measurement and the maximum gallbladder measurement observed during study treatment. The mean (95% CI) maximum change from baseline was then calculated across all patients for each treatment arm, and for the whole study population. Reversibility of changes in gallbladder volume and ejection fraction were evaluated calculating changes between the last on-treatment measurement and the last available measurement following the discontinuation of motesanib. Covariates (treatment, age, sex, body mass index, and nonsteroidal anti-inflammatory drug [NSAID] use) were explored in a linear regression model for potential relationships with gallbladder volume. Objective response was assessed for the safety analysis set, including only patients with measureable disease at baseline.

[2] = system: gallbladder; assay: Gallbladder function (ejection fraction) by CCK-HIDA, investigator assessment; conditions: for Gallbladder ejection fraction, mean change from baseline (95% CI): CCK-HIDA
Experimental: as §1, §2

[3] = system: gallbladder; assay: Specific gallbladder findings per independent ultrasound review
Experimental: as §1

[4] = system: patients with advanced metastatic solid tumors; assay: Adverse events (NCI CTCAE version 3.0)
Experimental: AEs occurring during treatment and through the safety follow-up were recorded and graded according to the National Cancer Institute Common Terminology Criteria for Adverse Events (version 3.0).

[5] = system: advanced metastatic solid tumors; assay: Tumor response per RECIST (investigator)
Experimental: Tumor response per RECIST [27] was assessed by the investigators. Magnetic resonance imaging or CT scans were performed at screening, every 6 weeks thereafter, and at the safety follow-up. Complete or partial responses were confirmed >28 days after the initial response assessment throughout the study. Patients who discontinued without a postbaseline tumor assessment or confirmation were considered nonresponders.
as §2

[6] = Pharmacokinetic analysis of plasma motesanib concentrations (noncompartmental); conditions: for concentration at 24 h: read-out: Median Cmin (trough plasma concentration at 24 hours postdose); for Cmax: po, read-out: Median Cmax
Experimental: Blood samples were collected as follows: predose and at 30 minutes and 1, 2, 4, 6, 8, and 24 hours postdose on day 1 of weeks 1 and 4, and predose and 1 to 2 hours postdose at weeks 2, 3, and 7 and every 3 weeks thereafter. […] Motesanib concentrations were assessed as described previously.

[7] = Arm B, 75 mg BID 2 wk on/1 wk off, n = 9
[8] = Arm B, 75 mg BID 2 wk on/1 wk off, n = 11
[9] = Arm C, 75 mg BID 5 d on/2 d off, n = 8
[10] = Arm C, 75 mg BID 5 d on/2 d off, n = 11
[11] = Arm B, 75 mg BID 2 wk on/1 wk off, n = 3
[12] = Arm B, 75 mg BID 2 wk on/1 wk off, n = 10
[13] = Arm C, 75 mg BID 5 d on/2 d off, n = 2
[14] = Arm C, 75 mg BID 5 d on/2 d off, n = 10
[15] = Arm A, 125 mg QD, post baseline, n = 23
[16] = Arm A, 125 mg QD, post treatment, n = 16
[17] = Arm B, 75 mg BID 2 wk on/1 wk off
[18] = Arm B, 75 mg BID 2 wk on/1 wk off, post baseline, n = 11
[19] = Arm B, 75 mg BID 2 wk on/1 wk off, post treatment, n = 9
[20] = Arm C, 75 mg BID 5 d on/2 d off
[21] = Arm C, 75 mg BID 5 d on/2 d off, post baseline, n = 11
[22] = Arm C, 75 mg BID 5 d on/2 d off, post treatment, n = 8

Mean change in gallbladder volume from baseline to last available off-treatment measurement (95% CI) ([1]; Arm A, 125 mg QD, n = 16): 10.4 (−10.0 to 30.8) cc
Mean change in gallbladder volume after discontinuation of motesanib (95% CI) ([1]; Arm A, 125 mg QD, n = 16): −8.5 (−38.8 to 21.7) cc
Gallbladder volume, maximum change from baseline (95% CI) ([1]; Arm A, 125 mg QD, n = 23): 45.6 (20.2–70.9) cc
Gallbladder volume, mean change from baseline (95% CI) ([1]; Arm A, 125 mg QD, n = 23): 17.7 (6.4–28.9) cc
Mean change in gallbladder volume from baseline to last available off-treatment measurement (95% CI) [1, 7]: −14.4 (−31.1 to 2.4) cc
Mean change in gallbladder volume after discontinuation of motesanib (95% CI) [1, 7]: −16.2 (−37.4 to 5.1) cc
Gallbladder volume, maximum change from baseline (95% CI) [1, 8]: 74.4 (41.3–107.4) cc
Gallbladder volume, mean change from baseline (95% CI) [1, 8]: 26.8 (11.5–42.1) cc
Mean change in gallbladder volume from baseline to last available off-treatment measurement (95% CI) [1, 9]: 7.1 (−28.9 to 43.0) cc
Mean change in gallbladder volume after discontinuation of motesanib (95% CI) [1, 9]: −7.4 (−67.1 to 52.4) cc
Gallbladder volume, maximum change from baseline (95% CI) [1, 10]: 67.3 (30.8–103.8) cc
Gallbladder volume, mean change from baseline (95% CI) [1, 10]: 26.9 (8.8–45.1) cc
Gallbladder volume change from baseline during treatment, median ([1]; across all patients): 17.3 cc
Gallbladder volume change from baseline during treatment, range ([1]; across all patients): −43.3 to 83.2 cc
Gallbladder volume increase from baseline during treatment, mean ([1]; across all patients, from 38.6 cc at baseline): 22.2 cc
Mean change in ejection fraction after discontinuation of motesanib (95% CI) ([2]; Arm A, 125 mg QD, n = 5): 10.8 (−45.8 to 67.4) %
Mean change in ejection fraction from baseline to last available off-treatment measurement (95% CI) ([2]; Arm A, 125 mg QD, n = 5): −16.6 (−53.3 to 20.1) %
Gallbladder ejection fraction, maximum change from baseline (95% CI) ([2]; Arm A, 125 mg QD, n = 21): −30.1 (−46.4 to −13.7) %
Gallbladder ejection fraction, mean change from baseline (95% CI) ([2]; Arm A, 125 mg QD, n = 21): −24.1 (−38.2 to −9.9) %
Mean change in ejection fraction after discontinuation of motesanib (95% CI) [2, 11]: 63.0 (24.0 to 102.0) %
Mean change in ejection fraction from baseline to last available off-treatment measurement (95% CI) [2, 11]: 7.7 (−3.8 to 19.1) %
Gallbladder ejection fraction, maximum change from baseline (95% CI) [2, 12]: −26.5 (−45.0 to −8.0) %
Gallbladder ejection fraction, mean change from baseline (95% CI) [2, 12]: −25.0 (−43.9 to −6.1) %
Mean change in ejection fraction after discontinuation of motesanib (95% CI) [2, 13]: 46.0 (−347.9 to 439.9) %
Mean change in ejection fraction from baseline to last available off-treatment measurement (95% CI) [2, 13]: 14.5 (−55.4 to 84.4) %
Gallbladder ejection fraction, maximum change from baseline (95% CI) [2, 14]: −6.5 (−29.8 to 16.8) %
Gallbladder ejection fraction, mean change from baseline (95% CI) [2, 14]: −3.3 (−25.0 to 18.4) %
Gallbladder ejection fraction change from baseline, median ([2]; across all patients): −18.0%
Gallbladder ejection fraction change from baseline, range ([2]; across all patients): −81% to 67
Gallbladder ejection fraction decrease from baseline, mean ([2]; across all patients, from 61.3% at baseline): 19.2%
Patients who developed de novo gallstones during treatment ([3]; all arms): Two
Median motesanib concentration after wash-out period ([6]; Arm B, after the 1-week wash-out period, limit of quantitation 0.2 ng/mL): < 0.2 ng/mL
Median motesanib concentration after wash-out period ([6]; Arm C, after the 2-day wash-out period): 1.2 ng/mL
Drug accumulation ([6]; after QD administration): no evidence of drug accumulation
concentration at 24 h ([6]; human, plasma, oral, 75 mg, Arm B, 75 mg BID 2 wk on/1 wk off): 60 ng/mL
concentration at 24 h ([6]; human, plasma, oral, 75 mg, Arm C, 75 mg BID 5 d on/2 d off): 35 ng/mL
concentration at 24 h ([6]; human, plasma, oral, 125 mg, Arm A, 125 mg QD): 14 ng/mL
AUC ([6]; human, plasma, oral, range across the three dosing regimens, read-out: Median AUC): 1900 to 3000 ng·h/mL
Cmax ([6]; human, plasma, 75 mg, Arm B, 75 mg BID 2 wk on/1 wk off, plasma, oral): 323 ng/mL
Cmax ([6]; human, plasma, 75 mg, Arm C, 75 mg BID 5 d on/2 d off, plasma, oral): 355 ng/mL
Cmax ([6]; human, plasma, 125 mg, Arm A, 125 mg QD, plasma, oral): 630 ng/mL
Structure (SMILES): CC1(C)CNc2cc(NC(=O)c3cccnc3NCc3ccncc3)ccc21 [Motesanib]
Incidence of biliary sludge ([3]; Arm A, 125 mg QD): 39%
Gallstones, patient incidence ([3]; Arm A, 125 mg QD, post baseline (any point during treatment), n = 23): 4 (17) n (%)
Common duct dilation, patient incidence [3, 15]: 0 (0) n (%)
Pericholecystic fluid, patient incidence [3, 15]: 1 (4) n (%)
Sludge, patient incidence [3, 15]: 9 (39) n (%)
Gallstones, patient incidence ([3]; Arm A, 125 mg QD, post treatment (last available off-treatment assessment), n = 16): 3 (19) n (%)
Common duct dilation, patient incidence [3, 16]: 0 (0) n (%)
Pericholecystic fluid, patient incidence [3, 16]: 0 (0) n (%)
Sludge, patient incidence [3, 16]: 4 (25) n (%)
Incidence of biliary sludge [3, 17]: 36%
Common duct dilation, patient incidence [3, 18]: 0 (0) n (%)
Gallstones, patient incidence [3, 18]: 2 (18) n (%)
Pericholecystic fluid, patient incidence [3, 18]: 1 (9) n (%)
Sludge, patient incidence [3, 18]: 4 (36) n (%)
Common duct dilation, patient incidence [3, 19]: 0 (0) n (%)
Gallstones, patient incidence [3, 19]: 2 (22) n (%)
Pericholecystic fluid, patient incidence [3, 19]: 0 (0) n (%)
Sludge, patient incidence [3, 19]: 4 (44) n (%)
Incidence of biliary sludge [3, 20]: 27%
Common duct dilation, patient incidence [3, 21]: 0 (0) n (%)
Gallstones, patient incidence [3, 21]: 0 (0) n (%)
Pericholecystic fluid, patient incidence [3, 21]: 0 (0) n (%)
Sludge, patient incidence [3, 21]: 3 (27) n (%)
Common duct dilation, patient incidence [3, 22]: 0 (0) n (%)
Gallstones, patient incidence [3, 22]: 0 (0) n (%)
Pericholecystic fluid, patient incidence [3, 22]: 0 (0) n (%)
Sludge, patient incidence [3, 22]: 0 (0) n (%)
Incidence of grade ≥3 treatment-related AEs ([4]; Arm A, 125 mg QD): 32%
Patients with serious grade 3 acute cholecystitis resulting in cholecystectomy ([4]; Arm A, approximately 1 month after treatment initiation): one
Patients with cholecystitis that resolved after treatment discontinuation ([4]; Arm A, grades 1, 2, 3, n = 1 each): Three
Patients with grade 1 gallbladder disorders (gallbladder dysfunction, gallbladder wall thickening) ([4]; Arm A, ongoing at safety follow-up): two
Incidence of grade ≥3 treatment-related AEs [4, 17]: 42%
Incidence of grade ≥3 treatment-related AEs [4, 20]: 33%
Patients with right upper quadrant pain during the study ([4]; all patients): Twelve
Patients with grade 4 AEs ([4]; all patients (one each in Arms B and C)): Two
Gallbladder toxicity events (all considered treatment-related), incidence ([4]; occurred only in Arm A, 125 mg QD): 12%
Durable (≥24 weeks) stable disease ([5]; Arm A, n = 6): 25%
Progressive disease ([5]; Arm A, n = 8): 33%
Stable disease as best tumor response ([5]; Arm A, n = 15): 63%
Durable (≥24 weeks) stable disease ([5]; Arm B, n = 1): 8%
Progressive disease ([5]; Arm B, n = 3): 25%
Stable disease as best tumor response ([5]; Arm B, n = 6): 50%
Patients with confirmed partial response ([5]; Arm B, stage IV thyroid cancer): one
Durable (≥24 weeks) stable disease ([5]; Arm C, n = 1): 9%
Progressive disease ([5]; Arm C, n = 4): 36%
Stable disease as best tumor response ([5]; Arm C, n = 7): 64%
Complete responses ([5]; all patients): No complete responses were achieved
Durable (≥24 weeks) stable disease ([5]; all patients (8 patients)): 17%
Progressive disease ([5]; all patients (fifteen patients)): 32%
Stable disease as best tumor response ([5]; all patients (twenty-eight patients)): 60%
Overall objective response rate ([5]; all patients with measurable disease at baseline, RECIST): 2%
